Results: patent publication US20240238237A1, “CONJUGATED LINOLEIC ACID SUPPLEMENTATION FOR DISEASE TREATMENT” (VIRGINIA TECH INTELLECTUAL PROPERTIES, INC., priority 2021, published 2024)

System: C57Bl/6 WT, PWS, PWS-KO mice and 129v/J mice with a deletion of Nhlh2
Test: Rotarod balance and forward locomotion, Example 2
Format: in vivo, mouse
Conditions: end of 12 week study, regardless of genotype
Procedure: At the end of the 12 week study, mice were acclimated to using a rotarod apparatus (FIG. 15A), for one day with grip tape on the rod, and two days without grip tape, at an acceleration of 2.65%, starting from 0) rpm to a maximum speed of 20 rpm. The average of four trials, spaced at least 5 minutes apart on day 4 of testing were the basis for the experimental result.

## conjugated linoleic acid [CLA]
  Rotarod balance and forward locomotion: balance and forward locomotion improvement
